The source of these data is paper PMC12075686, “Structural basis of phosphorylation-independent nuclear import of CIRBP by TNPO3” (Nature Communications, 2025).

Changes are numbered by the printed parent chain.

For test [1], the target named is TNPO3. Conditions: SAXS, monomer/dimer equilibrium; read-out: dissociation constant of TNPO3 dimerization in solution; cited from earlier work. The source says: We next aimed to gain insight into the structural basis for TNPO3 recognition of RSY-NLS and obtained crystals of TNPO3 C511A bound to CIRBP^RSY that diffracted X-rays to 2.94 Å resolution. This TNPO3 mutant was used for the determination of the 3D X-ray structure of the TNPO3-SRSF1 complex and increases TNPO3 stability. […] TNPO3 forms a dimer in the asymmetric unit of the crystal structure, as previously observed ... || page 9: Figure 2: Is TNPO3 a monomer in solution? In order for the reader to understand where are the additional contact points described in Sup Fig 2, a global view of the different contact points would be helpful. […] Out of the additional contact points in the crystal structure, the intermolecular salt bridge of E304 with K877 is the only contact which we could observe in both directions (chain A – chain B and vice versa). We in ...

The next test relates to transportin-1 (TNPO1). Conditions: cited from earlier work. The source says:
CIRBP, a nuclear protein known for its role in regulating mRNA stability and DNA repair, translocates from the nucleus to the cytoplasm under stress condition, forming stress granules[31],[32]. It is a typical RNA-binding pro ... || page 4: REVIEWER COMMENTS Comments are highlighted with a green background Reviewer #1 (Remarks to the Author) TNPO3 is an important karyopherin involved in some human pathologies and HIV-1 infection. Its best characterized biological function is in nuclear import of SR and SR-like repeat containing proteins, such as SFRS1 and CPSF6. […] Intriguingly, TNPO3 engages these alternative NLSs via the same region, which it ...

In test [2] the test system is TNPO3. The test is described as follows: NMR binding studies with TNPO3 (1H-15N HSQC, 1H-13C HMQC, 1H 1D, STD). Also noted: species or system human. The method, then:
All NMR studies for TNPO3 were carried out using the wild type protein. Protein samples for ^1H-^13C HMQC were prepared at a concentration of 100 μM and equilibrated in a buffer containing 50 mM Tris–HCl, pH 6.7, 150 mM NaCl, 2 mM TCEP and 10% D2O. Spectral acquisitions for TNPO3 free and in complex with CIRBP^RSY and SRSF1^RS, respectively were performed at 298 K on a 700 MHz Bruker Avance III NMR spectrometer equipped with a TCI triple-resonance cryoprobe. The pulse program was sfhmqcf2gpph and the spectra were recorded with 32 scans, interscan delay of 1 s, 160 points in F1, 1024 points in F2, 5283.879 Hz spectral width in F1, and 11,160.714 Hz spectral width in F2. Spectra were processed using Topspin 4.1.3.
Spectral acquisitions for TNPO3 free and in complex with mCIRBP^RSY, pCIRBP^RSY, and pSRSF1^RS, respectively, were performed at 298 K on a 600 MHz Bruker Avance Neo NMR spectrometer equipped with a TXI 600S3 probehead. The pulse program was hmqcgpphwg and the spectra were recorded with 64 scans, interscan delay of 1 s, 200 points in F1, 1024 points in F2, 4545.455 Hz spectral width in F1, and 7812.500 Hz spectral width in F2. Spectra were processed using Topspin 4.3.0.
For ^1H-^15N HSQC spectra, protein samples were equilibrated in a buffer containing 50 mM Tris–HCl, pH 6.7, 150 mM NaCl, 2 mM TCEP, 0.04% NaN3, and 10% D2O (with additional 20 mM MgCl2 for CIRBP phosphorylation kinetics). Data were recorded at 298 K on the 600 MHz Bruker Avance Neo NMR spectrometer equipped with a TXI 600S3 probehead. The pulse program was hsqcetfpf3gpsi and was recorded with 8-16 scans, interscan delay of 1 s, 128 points in F1, 1024 points in F2, 1949.318 Hz spectral width in F1, and 9615.385 Hz spectral width in F2. Spectra were processed using Topspin 4.3.0.

The target in a further test is T1, TNPO3 C511A (Homo sapiens, UniProt Q9Y5L0, C511A).
T1 construct: full-length (FL) WT human TNPO3 were generated by synthesizing codon-optimized DNA fragments; His6 (N, cleaved yes); protein A (N, cleaved yes); made in house; host or cells: Escherichia coli BL21-(DE3) Star
T1 sequence (Q9Y5L0 1-923 C511A): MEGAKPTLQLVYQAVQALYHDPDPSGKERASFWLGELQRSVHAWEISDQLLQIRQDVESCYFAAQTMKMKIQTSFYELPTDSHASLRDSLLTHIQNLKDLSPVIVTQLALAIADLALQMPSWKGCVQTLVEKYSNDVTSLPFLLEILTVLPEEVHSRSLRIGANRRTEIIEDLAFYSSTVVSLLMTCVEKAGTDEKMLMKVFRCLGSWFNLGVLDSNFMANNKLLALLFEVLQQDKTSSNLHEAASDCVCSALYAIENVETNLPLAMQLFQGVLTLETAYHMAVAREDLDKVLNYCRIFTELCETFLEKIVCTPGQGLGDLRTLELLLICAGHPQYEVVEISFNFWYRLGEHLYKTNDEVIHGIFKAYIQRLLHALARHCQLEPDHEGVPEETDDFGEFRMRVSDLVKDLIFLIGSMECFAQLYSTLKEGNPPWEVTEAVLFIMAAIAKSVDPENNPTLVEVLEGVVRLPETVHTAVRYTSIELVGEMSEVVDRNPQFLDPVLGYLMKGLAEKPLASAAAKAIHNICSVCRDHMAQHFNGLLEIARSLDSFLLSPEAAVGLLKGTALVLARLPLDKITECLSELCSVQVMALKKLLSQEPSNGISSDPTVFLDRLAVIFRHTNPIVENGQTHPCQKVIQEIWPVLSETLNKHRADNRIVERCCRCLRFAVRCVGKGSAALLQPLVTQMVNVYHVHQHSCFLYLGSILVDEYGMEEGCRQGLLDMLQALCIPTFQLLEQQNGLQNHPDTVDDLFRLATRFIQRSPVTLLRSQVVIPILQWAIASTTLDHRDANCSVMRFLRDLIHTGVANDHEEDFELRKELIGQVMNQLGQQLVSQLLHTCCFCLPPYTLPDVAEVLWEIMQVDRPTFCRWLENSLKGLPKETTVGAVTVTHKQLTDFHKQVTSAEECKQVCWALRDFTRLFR
In words: ITC, ligand titrated into TNPO3 C511A. In kind it is binding. The conditions noted are these: TNPO3 C511A. The method, then:
(§1) ITC has been performed by a Malvern Microcal VP-ITC at 25 °C for all binding studies. Samples have been dissolved in Tris buffer containing 50 mM Tris–HCl, 150 mM NaCl, 2 mM TCEP, and 0.04% NaN3 at pH 7.5. Binding studies of CIRBP^RSY and SRSF1^RS were performed with TNPO3 WT, and studies of CIRBP (157–172) and its mutants/phosphorylations were performed with TNPO3 C511A, respectively. Injection has been carried out by a syringe containing ligand solution of 100 μM, which adds ligand step-wise into the cell containing 10 μM TNPO3 during 28 injections of 10 μL each. Data analysis, curve fitting, and calculation of Kd, ΔH, and ΔS have been carried out using Origin-based 7.0 software provided by the manufacturer. All replicated ITC data are shown in Supplementary Fig. 6 and Supplementary Table 1.
A general note: ITC needs no label: the signal is the heat of the interaction.

The next test deals with T2, TNPO3 WT (Homo sapiens, UniProt Q9Y5L0).
T2 sequence (Q9Y5L0 1-923): T1 sequence (Q9Y5L0 1-923 C511A) with A511C
The test is described as follows: ITC, ligand titrated into TNPO3 WT. In kind it is binding. The conditions noted are these: ITC, TNPO3 WT. The method, then:
as §1

The target in test [3] is T3, Transportin 3 (TNPO3), full-length wild type (human, UniProt Q9Y5L0 1-923).
T3 chain: T1 sequence (Q9Y5L0 1-923 C511A) with A511C
In words: ITC.

Test [4] has as its target T3, Transportin 3 (TNPO3), full-length wild …. In words: ITC; rep2.
Test [5] deals with T4, Transportin 3 (TNPO3), full-length wild type (human, UniProt Q9Y5L0 1-923).
T4 construct: Transportin 3 (TNPO3), human, full-length wild type; For the NMR experiments made 15N-labelled with 13C-methyl labelling of isoleucine and methionine side chains ([IM-methyl 13C]); Vector pETM11-His6-protein A with a TEV site downstream of the protein A tag; also called TNPO3 WT; TNPO3 FL WT; source: E. coli BL21-(DE3) Star, purified (Ni-NTA, TEV cleavage, second Ni-NTA, SEC Superdex 200); not …
T4 sequence (looked up): T1 sequence (Q9Y5L0 1-923 C511A) with A511C
The test is described as follows: ITC; 100 µM ligand in the syringe injected (28 x 10 µL) into 10 µM TNPO3 (WT or C511A) in the cell; 25 °C; 50 mM Tris-HCl pH 7.5, 150 mM NaCl, 2 mM TCEP, 0.04% NaN3. The conditions noted are these: both partners purified.

The target in test [6] is T5, Transportin 3 (TNPO3) C511A mutant (human, UniProt Q9Y5L0 1-923, C511A).
T5 construct: Transportin 3 (TNPO3), human, C511A mutant that increases stability; Two chains in the asymmetric unit of 8CMK; source: E. coli BL21-(DE3) Star, purified (Ni-NTA, TEV cleavage, second Ni-NTA, SEC Superdex 200)
T5 sequence: T1 sequence (Q9Y5L0 1-923 C511A)
The description is as above. The conditions noted are these: both partners purified.

As for “TNPO3: Transportin 3, nuclear import receptor; here its own monomer/dimer equilibrium”, on TNPO3 [1], the Kd was 8.3 ± 1 µM.

For “H-GSRDYYSSRSQSGGYSDRSSGGSYRDSYDSYATHNE-OH [CIRBP^RSY]”, the “fold lower binding affinity for TNPO1 than for TNPO3” value with transportin-1 (TNPO1) is recorded as “approximately 70”. Further, in the test with TNPO3 [2] (100 µM RSY regions and 10 µM TNPO3 (peer review reply)), the “change of peptide 1H 1D NMR signals with sub-stoichiometric TNPO3” value is recorded as “slight decrease of peptide signal intensity”. The “chemical shift perturbations of TNPO3 methyl groups upon ligand addition (1H,13C HMQC)” value with TNPO3 [2] (100 µM [IM-methyl 13C] labeled TNPO3, one stoichiometric equivalent of ligand, 298 K, pH 6.7) is “led to CSPs of several TNPO3 ^1H,^13C cross-peaks”. Also, the ΔS result on TNPO3 C511A (rep1, reference for alanine mutation) is “–124 cal/mol/deg”; at TNPO3 C511A (rep2, reference for alanine mutation), “–242 cal/mol/deg”; at TNPO3 WT (replicate 1 (rep1)) it was “–101 cal/mol/deg”; at TNPO3 WT (replicate 2 (rep2)), “–192 cal/mol/deg”.

B1: RSY region of cold-inducible RNA-binding protein (CIRBP), residues 138-172 (domain or fragment, human, UniProt Q14011 138-172, looked up)
chain: SRDYYSSRSQSGGYSDRSSGGSYRDSYDSYATHNE
notes: Only residues 158-171 were modelled in PDB 8CMK; also called CIRBP^RSY; RSY-NLS; source: E. coli BL21-(DE3) Star, purified (denaturing lysis, Ni-NTA, TEV cleavage, second Ni-NTA, SEC Superdex 30); not shown: His6, N-terminal, cleaved; protein A, N-terminal, cleaved
Take B1: the Kd in test [3] came to 0.87 µM; in test [4], 0.87 µM; in test [5], 0.61 ± 0.1 µM; in test [6] it was 0.97 ± 0.13 µM.
